# Laboratory results reported in patent US6649626B1, “N-substituted 1-(lactone) isoquinolones for treating nervous disorders” (Centre National de la Recherche Scientifique (CNRS), priority 1999, dated 2003).
# Like-named read-outs stand apart in the source and are kept apart here.
# Assays:
# [1] = target: Ro15-4513 binding (GABA-A receptor); test: Ro15-4513 displacement; details: for Ro15-4513 displacement: 100 μM
# [2] = system: GABA-binding site of the GABA-A receptor; test: Displacement of tritiated muscimol from brain membranes; details: for Muscimol: stimulation: stimulation instead of displacement
# [3] = target: benzodiazepine-binding site of the GABA-A receptor; test: Displacement of tritiated flunitrazepam from brain membranes; details: read-out: IC50 Flu / BZ receptor
# [4] = target: T1, benzodiazepine-binding site of the GABA-A receptor (Rattus norvegicus, UniProt P18508+P62813); test: as above; details: tissue not stated; for inhibition at 100 µM: read-out: Inhibition of the tritiated ligands % Flu (100 μM)
# T1 construct: IC50 Flu / BZ receptor; other: cerebellum (ce); other: cerebellum (ce; BZ1 subtype); other: 10 μM; cerebellum; other: 100 μM; other: 0.5 μM
# T1 sequence (P62813 28-455): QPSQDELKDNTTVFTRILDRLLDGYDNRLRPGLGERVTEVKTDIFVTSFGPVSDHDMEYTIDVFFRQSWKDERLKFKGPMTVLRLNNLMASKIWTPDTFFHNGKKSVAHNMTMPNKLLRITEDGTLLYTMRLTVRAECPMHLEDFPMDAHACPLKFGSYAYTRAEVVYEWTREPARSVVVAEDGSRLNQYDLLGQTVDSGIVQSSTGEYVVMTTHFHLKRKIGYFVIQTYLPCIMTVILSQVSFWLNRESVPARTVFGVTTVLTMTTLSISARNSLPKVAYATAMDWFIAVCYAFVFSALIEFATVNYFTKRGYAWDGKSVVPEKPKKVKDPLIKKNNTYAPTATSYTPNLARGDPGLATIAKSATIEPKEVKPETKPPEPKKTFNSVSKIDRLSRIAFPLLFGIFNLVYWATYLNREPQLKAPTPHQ
# T1 sequence (P18508 39-466): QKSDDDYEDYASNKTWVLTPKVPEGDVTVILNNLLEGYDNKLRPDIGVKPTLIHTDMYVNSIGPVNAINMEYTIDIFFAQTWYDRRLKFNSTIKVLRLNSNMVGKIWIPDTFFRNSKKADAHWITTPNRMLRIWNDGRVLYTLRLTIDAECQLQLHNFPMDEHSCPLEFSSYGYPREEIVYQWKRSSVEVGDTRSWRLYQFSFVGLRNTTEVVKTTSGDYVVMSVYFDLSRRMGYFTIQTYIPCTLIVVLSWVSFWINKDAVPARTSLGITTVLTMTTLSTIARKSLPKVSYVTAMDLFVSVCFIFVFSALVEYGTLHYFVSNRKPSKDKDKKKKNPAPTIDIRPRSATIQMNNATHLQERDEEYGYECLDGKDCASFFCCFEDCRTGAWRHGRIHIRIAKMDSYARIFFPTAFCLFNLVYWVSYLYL
# T1 sequence (P63138 26-474 partner): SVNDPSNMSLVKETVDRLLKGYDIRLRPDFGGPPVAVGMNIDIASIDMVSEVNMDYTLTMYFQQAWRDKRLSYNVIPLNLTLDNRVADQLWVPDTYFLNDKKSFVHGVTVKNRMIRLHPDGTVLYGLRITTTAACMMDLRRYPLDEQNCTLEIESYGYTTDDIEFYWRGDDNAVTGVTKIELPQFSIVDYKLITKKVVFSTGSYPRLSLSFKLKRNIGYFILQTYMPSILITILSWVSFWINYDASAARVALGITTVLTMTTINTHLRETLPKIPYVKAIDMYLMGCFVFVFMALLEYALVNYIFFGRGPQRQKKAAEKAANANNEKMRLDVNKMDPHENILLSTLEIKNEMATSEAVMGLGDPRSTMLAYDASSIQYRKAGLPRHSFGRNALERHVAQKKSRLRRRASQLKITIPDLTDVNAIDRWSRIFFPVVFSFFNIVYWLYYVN
# [5] = target: picrotoxin-binding site of the GABA-A receptor; test: Displacement of 35S-TBPS from brain membranes; parameters: species or system rats; details: for IC50: tissue not stated
# [6] = target: T2, α1β2γ2 subtype of the GABA receptor (Rattus norvegicus, UniProt P18508+P62813+P63138); test: Electrophysiology: modulation of GABA currents in Xenopus oocytes expressing recombinant GABA-A receptors; assay type: cell-based; details: for % stimulation of the GABA currents / % stimulation of the GABA currents (100 μM): α1β2γ2 in oocytes; for % stimulation of the GABA currents (100 μM): 100 μM compound with GABA
# T2 construct: expressed in transfected cells; host or cells: Xenopus laevis oocytes (cRNA injection)
# T2 sequence (P62813 28-455): as the sequence (P62813 28-455) above
# T2 sequence (P63138 25-474 limits assumed): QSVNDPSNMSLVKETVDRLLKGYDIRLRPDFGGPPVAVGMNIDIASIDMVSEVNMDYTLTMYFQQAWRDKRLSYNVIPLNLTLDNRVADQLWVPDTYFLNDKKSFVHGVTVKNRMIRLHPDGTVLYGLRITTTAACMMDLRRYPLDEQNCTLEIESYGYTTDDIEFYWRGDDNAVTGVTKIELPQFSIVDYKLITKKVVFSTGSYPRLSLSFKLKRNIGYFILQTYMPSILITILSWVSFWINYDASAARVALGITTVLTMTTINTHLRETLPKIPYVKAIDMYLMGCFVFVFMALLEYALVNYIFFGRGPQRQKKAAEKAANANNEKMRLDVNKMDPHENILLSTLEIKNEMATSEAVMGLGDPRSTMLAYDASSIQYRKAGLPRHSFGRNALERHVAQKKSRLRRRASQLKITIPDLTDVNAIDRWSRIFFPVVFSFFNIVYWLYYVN
# T2 sequence (P18508 39-466): as the sequence (P18508 39-466) above
# [7] = system: recombinant receptors of the composition of αxβ2γ2 subunits in which x=1, 2, 3, 5, 6; test: Stimulation of the GABA current at recombinant receptors with other α subunits; assay type: cell-based; details: α1 replaced by the α2, α3, α5 or α6 subunit
# [8] = target: T3, picrotoxin-binding site of the GABA-A receptor; test: Displacement of 35S-TBPS from brain membranes; parameters: species or system rats; details: cerebellum
# T3 construct: other: cerebellum
# [9] = target: T4, picrotoxin-binding site of the GABA-A receptor; test: Displacement of 35S-TBPS from brain membranes; parameters: species or system rats; details: cortex
# T4 construct: other: cortex
compound,measurement,setting,value
O=C1CCC(C2c3ccccc3CCN2S(=O)(=O)c2ccc(C(F)(F)F)cc2)O1 (mixture of isomers) [Compound 70],IC50,[1],> 100 µM
same,Muscimol: stimulation,[2]; 100 μM,weak stimulation at 100 μM in the cortex alone
same,IC50,[3]; tissue not stated,> 100 µM
O=C1CCC(C2c3ccccc3CCN2S(=O)(=O)c2ccc(OC(F)(F)F)cc2)O1 (mixture of isomers) [Compound 71],IC50,[1],> 100 µM
same,Muscimol: stimulation,[2]; 100 μM,weak stimulation at 100 μM in the cortex alone
same,IC50,[4]; read-out: IC50 Flu / BZ receptor,> 100 µM
COc1ccc(S(=O)(=O)N2CCc3ccccc3C2C2CCC(=O)O2)cc1 (mixture of isomers) [Compound 72],Ro15-4513 displacement,[1],Muscimol: 100 μM = 0% Ro15-4513: 100 μM = 0%
same,IC50,[5],~100 µM
same,Displacement of muscimol,[2]; 100 μM,Muscimol: 100 μM = 0% Ro15-4513: 100 μM = 0%
same,Inhibition of the tritiated ligands % Flu (100 μM),[4]; 100 μM,0%
COc1cc2c(cc1OC)[C@H]([C@@H]1CCC(=O)O1)NCC2 (racemic),melting point,,119 °C
"COc1cc2c(cc1OC)C([C@H]1C=CC(=O)O1)N(C(=O)OCc1ccccc1)CC2 (mixture of isomers) [Compound 32a, (±)-(1R,2′R)-1-(2,5-Dihydro-5-oxo-2-furyl)-2-N-benzyloxycarbonyl-6,7-dimethoxy-1,2,3,4-tetrahydroisoquinoline]",stimulation of the GABA currents (in words),[6]; α1β2γ2 receptor,only weakly stimulates
same,Displacement of muscimol,[2]; concentration not given,Displacement of muscimol = 0%
same,stimulation when the α1 subunit is replaced,[7],greatly increased
"O=C1CCC(C2c3ccccc3CCN2C(=O)OCc2ccccc2)O1 (racemic) [Compound 54, (±)-(1R,2′R)-2-N-Benzyloxycarbonyl-1-(2,3,4,5-tetrahydro-5-oxo-2-furyl)-1,2,3,4-tetrahydroisoquinoline]",IC50,[1],0.2 µM
same,Inhibition of the tritiated ligands % TBPS,[5]; 10 μM,10 μM = 0%
same,% stimulation of the GABA currents,[6]; 0.1 μM compound,+4 ± 10%
same,% stimulation of the GABA currents (100 μM),[6],+351 ± 17%
same,% stimulation of the GABA currents (100 μM),[6]; listed as (+/−) 54,+351%
same,% of the stimulation inhibited by flumazenil,"[6]; stimulation by 10 μM compound, 1 μM flumazenil, α1β2γ2",78%
same,IC50,[3]; cerebellum (ce; BZ1 subtype),0.04 µM
same,IC50,[3]; cortex (co = whole brain without cerebellum; BZ2 subtype),0.15 µM
O=C1C=C[C@H]([C@H]2c3ccccc3CCN2C(=S)Oc2ccccc2)O1 (racemic) [Compound 63],Ro15-4513 displacement,[1],Muscimol: 100 μM = 0% Ro15-4513: 100 μM = 0%
same,% stimulation of the GABA currents (100 μM),[6],+155 ± 47%
same,Displacement of muscimol,[2]; 100 μM,Muscimol: 100 μM = 0% Ro15-4513: 100 μM = 0%
same,inhibition at 100 µM,[4]; 100 μM,0%
O=C1C=C[C@@H]([C@H]2c3ccccc3CCN2C(=S)Oc2ccccc2)O1 (racemic) [Compound 64],Ro15-4513 displacement,[1],Muscimol: 100 μM = 0% Ro15-4513: 100 μM = 0%
same,IC50,[8],30 µM
same,IC50,[9],> 100 µM
same,% stimulation of the GABA currents (100 μM),[6],+265 ± 50%
same,Displacement of muscimol,[2]; 100 μM,Muscimol: 100 μM = 0% Ro15-4513: 100 μM = 0%
same,inhibition at 100 µM,[4]; 100 μM,0%
"O=C1CC[C@H]([C@H]2c3ccccc3CCN2S(=O)(=O)c2ccccc2)O1 (racemic) [Compound 65, (±)-(1R,2′R)-2-N-Benzenesulfonyl-1-(2,3,4,5-tetrahydro-5-oxo-2-furyl)-1,2,3,4-tetrahydroisoquinoline]",IC50,[1],20 µM
same,IC50,[5],~100 µM
same,% stimulation of the GABA currents (100 μM),[6],+423%
same,% stimulation of the GABA currents (100 μM),[6]; listed as (+/−) 65,+423%
same,Muscimol: stimulation,[2]; 100 μM,weak stimulation
same,melting point,,177 to 179 °C
"O=C1CCC(C2c3ccccc3CCN2S(=O)(=O)c2ccc(Cl)cc2)O1 (racemic) [Compound 66, (±)-(1R,2′R)-1-(2,3,4,5-Tetrahydro-5-oxo-2-furyl)-2-N-p-chlorobenzenesulfonyl-1,2,3,4-tetrahydroisoquinoline]",% stimulation of the GABA currents (100 μM),[6],+479%
same,% stimulation of the GABA currents (100 μM),[6]; listed as (+/−) 66,+479%
same,melting point,,145 to 147 °C
"O=C1CCC(C2c3ccccc3C=CN2C(=O)OCc2ccccc2)O1 (racemic) [Compound 75, (±)-(1R,2′R)-2-N-Benzyloxycarbonyl-1-(2,3,4,5-tetrahydro-5-oxo-2-furyl)-1,2-dihydroisoquinoline]",% stimulation of the GABA currents,[6]; 10 μM compound,+148 ± 21% (10 μM)
same,melting point,,109 to 111 °C
